The source of these data is US20250026770A1, “NOVEL BORONSOME FACILITATING DIAGNOSIS AND TREATMENT” (PEKING UNIVERSITY, priority 2021, published 2025).

The subject of this assay is DNA repair system. The assay is described as follows: γ-h2ax staining. The text has this: In terms of integration of radiotherapy and chemotherapy, the preferred drug for encapsulation was Doxorubicin. […] Subsequently, we considered that if we could start from the principles of BNCT and selected individual drugs that disrupt the DNA replication process, its efficacy could be further enhanced. Therefore, a poly(ADP-ribose)polymerase (PARP) inhibitor (olaparib) was selected.

Take `O=C(c1cc(Cc2n[nH]c(=O)c3ccccc23)ccc1F)N1CCN(C(=O)C2CC2)CC1` [olaparib]: the “Interference on the DNA repair system” value is “verified its interference on the DNA repair system”.
